The conditions of data set [1]: cited from earlier work.
For data set [2] the following is noted: 1-octanol/water (pH 7.4) buffer solution; cited from earlier work.
For data set [3] the following is noted: cited from earlier work. This is another data set of the same source.
The nature of a further data set: clinical. The settings on record: human, in vivo, intravenous, 50 mg/kg.
For data set [4] the following is noted: LexiComp monograph; cited from earlier work.
The conditions of data set [5]: constituted, cited from earlier work.
Data set [6] deals with haploidentical HCT. The conditions noted are these: at 1 year; cited from earlier work.
The test system of data set [7] is haploidentical HCT. The settings on record: CTN 0603; cited from earlier work.

In brackets after ≈: the same amount, converted by molar mass. Read-outs that look alike come from different tables or passages of the source.

Take `C=CC[C@@H]1/C=C(\C)C[C@H](C)C[C@H](OC)[C@H]2O[C@@](O)(C(=O)C(=O)N3CCCC[C@H]3C(=O)O[C@H](/C(C)=C/[C@@H]3CC[C@@H](O)[C@H](OC)C3)[C@H](C)[C@@H](O)CC1=O)[C@H](C)C[C@@H]2OC` [Tacrolimus]: in data set [1] (chloroform, in words), the solubility in chloroform result was “very soluble”. Besides, in data set [1] (in words), the solubility in ethanol result was “freely soluble” and the solubility in methanol result is reported as “very soluble”. Further, the solubility in water result in data set [1] (water, in words) was “practically insoluble”.

In the case of `COc1c(C)c2c(c(O)c1C/C=C(\C)CCC(=O)OCCN1CCOCC1)C(=O)OC2` [Mycophenolate mofetil, 2-morpholinoethyl (E)-6-(1,3-dihydro-4-hydroxy-6-methoxy-7-methyl-3-oxo-5-isobenzofuranyl)-4-methyl-4-hexenoate], in data set [1] (acetone, in words), the solubility in acetone entry was “freely soluble”. Also, in data set [1] (in words), the solubility in ethanol result is on record as “sparingly soluble”. Moreover, the solubility in methanol result in data set [1] (in words) was “soluble”. Further, the “solubility in an acidic medium” value in data set [1] (pH 3.6) is 4.27 mg/mL (≈ 9.85 mM). For the same compound, the solubility in water in data set [1] (pH 7.4) is 0.043 mg/mL (≈ 0.0992 mM); in data set [1] (water, in words) it was “slightly soluble”. Also, the apparent partition coefficient in data set [2] was 238. Further, the pKa in data set [3] (morpholino group) was 5.6; in data set [3] (phenolic group), 8.5.

In turn, `O=P1(N(CCCl)CCCl)NCCCO1` (stereo not shown) [Cyclophosphamide, 2-[bis(2-cholorethyl)amino]tetrahydro-2H-1,3,2-oxazaphosphorine 2-oxide monohydrate] showed a half-life in the data set “clinical” of 60 h. For the same compound, in data set [4], the elimination half-life was 3 to 12 h. Besides, the “physically and chemically stable” value was “six” in data set [5] (refrigerated) and 24 h in data set [5] (room temperature). Further, the relapse rate is on record as 51% with haploidentical HCT [6] and 45% in the data set on haploidentical HCT [7].

Values taken from patent publication US12678464B2, “Methods for stem cell transplantation” (The UAB Research Foundation, priority 2015, dated 2026).
